Literature values, collected in patent US20090311266A1, “Inhibitors of the endothelin signalling pathway and alphavbeta3 integrin receptor antagonists for combination therapy” (BASF AKTIENGESELLSCHAFT, priority 1999, published 2009).

Legend:
[1] = tested on: porcine coronary injury model
[2] = tested on: ischemic complications after coronary interventions
[3] = tested on: pigs with coronary artery stents; settings: 28 days of oral treatment (b.i.d.)

Q: Which less lumen stenosis [1] does the source give for cyclo[R-G-D-Mamb-A] [XJ 735] here?
A: The less lumen stenosis was 2.9 fold.

Q: And the “reduction of neointimal hyperplasia” value [1]?
A: Its value is 43%.

Q: With “abciximab: anti-platelet integrin αIIbβ3 antibody abciximab (c7E3 Fab, Reopro®)” as the compound, how does the “suppression of ischemic complications (endpoints death, MI or repeat intervention)” value [2] read?
A: Its value is “sustained suppression of ischemic complications”.

Q: For `CCCCN(CCCC)C(=O)CN1C[C@H](c2ccc3c(c2)OCO3)[C@@H](C(=O)O)[C@@H]1c1ccc(OC)cc1` (relative stereo) [A 127722, trans-trans-2-(4-methoxyphenyl)-4-(3,4-methylendioxyphenyl)-1-(2-(N,N-dibutylamino)-2-oxoethyl)-pyrrolidine-3-carboxylic acid], which “maximal reduction in neointima formation” value [3] is on record?
A: Its value is “about 30%”.
